Laboratory results as given in ChEMBL document CHEMBL5335854, “Genomic and Metabolomic Analyses of Nocardiopsis maritima YSL2 as the Mycorrhizosphere Bacterium of Suaeda maritima (L.) Dumort” (2024).
≈ marks a conversion by molar mass, not a printed value.

How the values were obtained:
Assay type in all cases: functional
[1] = test system: Staphylococcus epidermidis; assay: Antibacterial activity against Staphylococcus epidermidis KCCM 35494 assessed as inhibition of bacterial growth incubated for 24 hrs by broth dilution method
Pseudomonas fluorescens = assay: Antibacterial activity against Pseudomonas fluorescens KCCM 11362 assessed as inhibition of bacterial growth incubated for 24 hrs by broth dilution method
Bacillus subtilis = assay: Antibacterial activity against Bacillus subtilis KCCM 11316 assessed as inhibition of bacterial growth incubated for 24 hrs by broth dilution method
Escherichia coli = assay: Antibacterial activity against Escherichia coli KCCM 11234 assessed as inhibition of bacterial growth incubated for 24 hrs by broth dilution method

| MIC [1] | MIC (Pseudomonas fluorescens) | MIC (Bacillus subtilis) | MIC (Escherichia coli) | Structure (SMILES) |
| --- | --- | --- | --- | --- |
| 4 µg/mL (≈ 5.14 µM) | 16 µg/mL (≈ 20.6 µM) | > 128 µg/mL | 16 µg/mL (≈ 20.6 µM) | CC[C@@H](C)[C@H]1NC(=O)[C@H](Cc2ccccc2)NC(=O)[C@@H](CCCCN)NC(=O)[C@H](Cc2ccc(O)cc2)NC(=O)[C@H]([C@@H](C)CC)NC(=O)[C@@H](CC(C)C)NC1=O |
| 8 µg/mL (≈ 10.5 µM) | 32 µg/mL (≈ 41.9 µM) | > 128 µg/mL | 16 µg/mL (≈ 20.9 µM) | CC[C@H](C)[C@@H]1NC(=O)[C@@H](CC(C)C)NC(=O)[C@@H](C(C)C)NC(=O)[C@H](Cc2ccccc2)NC(=O)[C@@H](CCCCN)NC(=O)[C@H](Cc2ccc(O)cc2)NC1=O |

| Structure (SMILES) | MIC [1] | MIC (Pseudomonas fluorescens) | MIC (Bacillus subtilis) | MIC (Escherichia coli) |
| --- | --- | --- | --- | --- |
| NC[C@H]1O[C@H](O[C@H]2[C@H](O)[C@@H](O[C@H]3O[C@H](CO)[C@@H](O)[C@H](N)[C@H]3O)[C@H](N)C[C@@H]2N)[C@H](O)[C@@H](O)[C@@H]1O [KANAMYCIN] | 0.5 µg/mL (≈ 1.03 µM) | 1 µg/mL (≈ 2.06 µM) | 2 µg/mL (≈ 4.13 µM) | 1 µg/mL (≈ 2.06 µM) |
